Literature values in patent US6770262B2, “Nasal administration of agents for the treatment of gastroparesis” (priority 2000, dated 2004).
Where two headings read alike, the source gives them in different places.

Conditions: for onset of action: injection form

time of peak plasma concentrations (after a single oral dose): 1 to 2 h
SMILES: CCN(CC)CCNC(=O)c1cc(Cl)c(N)cc1OC [Metoclopramide]
onset of action (intramuscular administration): 10 to 15 min
onset of action (intravenous administration): 1 to 3 min
